Experimental data published in article PMC12080387, “Integrated thermal proteome and thermal proximity co-aggregation profiling identifies ATP6V1C1 as a novel anti-cancer drug target” (International Journal of Biological Sciences, 2025).

Target: T1, ATP6V1C1 (Homo sapiens, UniProt P21283)
T1 construct: human wild-type ATP6V1C1, N-terminal 6xHis tag, modified pET30a, expressed in E. coli BL21 (DE3)
Assay: ITC with purified recombinant protein; supported by CETSA/ITDRF (half-maximal destabilization […]) and TPP
Format: binding

T1 sequence (P21283 2-382): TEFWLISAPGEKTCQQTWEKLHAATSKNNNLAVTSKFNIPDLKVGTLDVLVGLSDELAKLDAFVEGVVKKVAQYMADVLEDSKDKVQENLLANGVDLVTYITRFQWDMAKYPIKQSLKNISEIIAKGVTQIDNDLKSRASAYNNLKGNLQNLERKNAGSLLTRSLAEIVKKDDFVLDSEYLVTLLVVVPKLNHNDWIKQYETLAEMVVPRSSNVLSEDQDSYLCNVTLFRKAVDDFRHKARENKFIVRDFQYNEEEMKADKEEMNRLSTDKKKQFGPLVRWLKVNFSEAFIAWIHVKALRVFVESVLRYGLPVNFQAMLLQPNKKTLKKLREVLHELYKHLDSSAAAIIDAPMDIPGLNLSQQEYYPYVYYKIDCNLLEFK

Cc1c([C@H](C)[C@@H]2NC[C@@H](C)C[C@H]2O)ccc2c1C[C@H]1[C@H]2CC=C2C[C@@H](O)CC[C@@]21C [VAM, veratramine]
Kd: 1170 nM
